PubChem BioAssay AID2060899 (Molecular Pharmacology Branch, DTP, NCI, 2025)

Tested on: 565726-208-R1-J5-PDC complex spheroids, growth inhibition
Assay: Anticancer human tumor 565726-208-R1-J5-PDC patient-derived pancreatic adenocarcinoma cell line growth inhibition [RAS]
Details: for IC50: curve of first compound; for viability, T/C: stronger effect = lower value
Source text: RAS pathway inhibitors in Combinations in Complex Spheroids
A high-throughput screen of multi-cell type tumor spheroids was designed to identify active combinations of RAS pathway inhibitors and targeted small molecules. Complex spheroids include a stromal component modeled by human endothelial cells (HUVEC) and fibroblasts modeled by human mesenchymal stem cells (MSCs). The concentration ranges selected for each drug and investigational agent were based upon clinically achievable concentrations if the clinical Cmax of the agent was known.
Compounds. The drugs and investigational agents: abemaciclib (NSC768073), cobimetinib (NSC768068), divarasib (GDC6063, NSC841802), docetaxel (NSC628503), GDC-1971 (RLY-1971, NSC841576), gemcitabine (NSC613327), inavolisib (NSC800729), ipatasertib (NSC767898), KB-0742 (NSC834161), MRTX-1133 (NSC836407), osimertinib (NSC779217), RMC-4630 (NSC839698), RMC-6236 (NSC851965), RMC-6291 (NSC852671), Ro-3306 (NSC812927), sapanisertib (NSC764658), SN-38 (NSC673596), staurosporine (NSC755774), SY5609 (NSC837396), and tovorafenib (DAY101, NSC766906), were obtained from the National Cancer Institute (NCI) Developmental Therapeutics Program Chemical Repository. The FDA-approved anticancer drug set is available from the NCI Developmental Therapeutics Program. […] The stock solutions were prepared in dimethyl sulfoxide (DMSO, Sigma-Aldrich, St. Louis, MO, cat. D2650) at 800-fold the tested concentration and stored at -70 degrees C prior to their use. All drugs and investigational agents were tested over a range starting from a high concentration at or near the clinical Cmax and decreasing in half-log increments. If the clinical Cmax for an agent had not been determined, the highest concentration tested was 10 microM.
Cell Culture. All cells were maintained in an incubator at 37 degrees C and 5% CO2 with 95% humidity. The PDC lines were cultured according to standard operating procedures established by the NCI PDMR. All PDCs were thawed and cultured in Matrigel-coated flasks prepared with a working solution of 1X Ham's F-12 nutrient mix, without supplementation (Invitrogen, Waltham, MA, cat. 11765054), 100 U/mL penicillin-streptomycin (Invitrogen, cat. 15140122), and 2.5% Matrigel (Corning Inc., Corning, NY, cat. 354248) for the first three passages. The 362531-283-R-J2-PDC and 782815-120-R-J1-PDC lines were cultured in 6C/Colon 1B media, which includes advanced DMEM/F-12 (Thermo Fisher Scientific, cat. 12634028), 10 mM HEPES (Thermo Fisher Scientific, cat. 15630080), 1X GlutaMAX supplement (Thermo Fisher Scientific, cat. 35050061), 0.1 mg/mL primocin (InvivoGen, San Diego, CA, cat. ant-pm-2), 10% defined fetal bovine serum, heat inactivated (HyClone Laboratories Inc., Logan, UT, cat. SH30070.03HI), 50% L-WRN conditioned media (ATCC, cat. CRL-3276), 1.25 mM N-Acetyl-L-cysteine (Sigma-Aldrich, cat. A9165), 10 mM nicotinamide (Sigma-Aldrich, cat. N0636), 1X B-27 supplement (Thermo Fisher Scientific, cat. 17504044), 1X N-2 supplement (Thermo Fisher Scientific, cat. 17502048), 50 ng/mL human EGF (Thermo Fisher Scientific, cat. PHG0311), and 10 microM Y-27632 dihydrochloride (Tocris Bioscience, cat. 1254). The K12877-001-R-J1-PDC line was cultured in 6I media, which includes all 6C/Colon 1B media plus 10 ng/mL human FGF-10 (PeproTech, cat. 100-26), 1 ng/mL human FGF-2 (PeproTech, cat. 100-18B), 1 µM prostaglandin E2 (Tocris Bioscience, cat. 2296), […] hydrocortisone (Sigma-Aldrich, cat. H4001), and […] bovine insulin (Sigma-Aldrich, cat. I6634). The K86415-001-R-J1-PDC line was cultured in 6D media, which includes all 6C/Colon 1B media components minus the L-WRN conditioned media. The 485176-168-R4-J1-PDC was cultured in PANC media, which includes all 6C/Colon 1B media plus 100 ng/mL human FGF-10 (PeproTech, cat. 100-26), 500 nM SB-431542 (Selleckchem, cat. S1067), and 10 nM gastrin (Tocris Bioscience, cat. 3006). […]

[1] = second compound 0.000949 µM, first compound 0.0316 µM
[2] = second compound 0.000949 µM, first compound 0.1 µM
[3] = second compound 0.000949 µM, first compound 0.316 µM
[4] = second compound 0.000949 µM, first compound 1 µM
[5] = second compound 0.003 µM, first compound 0.0316 µM
[6] = second compound 0.003 µM, first compound 0.1 µM
[7] = second compound 0.003 µM, first compound 0.316 µM
[8] = second compound 0.003 µM, first compound 1 µM
[9] = second compound 0.00949 µM, first compound 0.0316 µM
[10] = second compound 0.00949 µM, first compound 0.1 µM
[11] = second compound 0.00949 µM, first compound 0.316 µM
[12] = second compound 0.00949 µM, first compound 1 µM
[13] = second compound 0.03 µM, first compound 0.0316 µM
[14] = second compound 0.03 µM, first compound 0.1 µM
[15] = second compound 0.03 µM, first compound 0.316 µM
[16] = second compound 0.03 µM, first compound 1 µM
[17] = second compound 0.0949 µM, first compound 0.0316 µM
[18] = second compound 0.0949 µM, first compound 0.1 µM
[19] = second compound 0.0949 µM, first compound 0.316 µM
[20] = second compound 0.0949 µM, first compound 1 µM
[21] = second compound 0.3 µM, first compound 0.0316 µM
[22] = second compound 0.3 µM, first compound 0.1 µM
[23] = second compound 0.3 µM, first compound 0.316 µM
[24] = second compound 0.3 µM, first compound 1 µM
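Also: spheroids exposed to compounds for seven days before readout.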
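For viability, T/C in this document: 100% = DMSO vehicle control viability.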

Question: How did the IC50 (second compound 0.000949 µM) turn out when `C=CC(=O)Nc1cc(Nc2nccc(-c3cn(C)c4ccccc34)n2)c(OC)cc1N(C)CCN(C)C` + CCn1c(-c2cccnc2C(C)OC)c2c3cc(ccc31)N1CCOC(CC(NC(=O)C(C(C)C)N(C)C(=O)C3(F)CCN(C(=O)C#CC(C)(C)N(C)C)CC3)C(=O)N3CCCC(N3)C(=O)OCC(C)(C)C2)C1 was run?
Answer: > 1 µM

Question: What about the IC50 (second compound 0.003 µM) of the same molecule?
Answer: > 1 µM

Question: And the IC50 (second compound 0.00949 µM)?
Answer: > 1 µM

Question: And the IC50 (second compound 0.03 µM)?
Answer: > 1 µM

Question: And the IC50 (second compound 0.0949 µM)?
Answer: > 1 µM

Question: And the IC50 (second compound 0.3 µM)?
Answer: > 1 µM

Question: And the viability, T/C (second compound 0.000949 µM, first compound 0.00316 µM)?
Answer: 98.1%

Question: And the viability, T/C (second compound 0.000949 µM, first compound 0.01 µM)?
Answer: 87.7%

Question: What about the viability, T/C [1] of the same molecule?
Answer: 93.8%

Question: And the viability, T/C [2]?
Answer: 79.7%

Question: What about the viability, T/C [3] of the same molecule?
Answer: 78.8%

Question: And the viability, T/C [4]?
Answer: 65.2%

Question: What about the viability, T/C (second compound 0.003 µM, first compound 0.00316 µM) of the same molecule?
Answer: 93.4%

Question: What about the viability, T/C (second compound 0.003 µM, first compound 0.01 µM) of the same molecule?
Answer: 91%

Question: What about the viability, T/C [5] of the same molecule?
Answer: 89%

Question: And the viability, T/C [6]?
Answer: 77.1%

Question: What about the viability, T/C [7] of the same molecule?
Answer: 76.4%

Question: And the viability, T/C [8]?
Answer: 57%

Question: And the viability, T/C (second compound 0.00949 µM, first compound 0.00316 µM)?
Answer: 99.1%

Question: What about the viability, T/C (second compound 0.00949 µM, first compound 0.01 µM) of the same molecule?
Answer: 91.6%

Question: What about the viability, T/C [9] of the same molecule?
Answer: 83.3%

Question: And the viability, T/C [10]?
Answer: 73.3%

Question: And the viability, T/C [11]?
Answer: 78%

Question: What about the viability, T/C [12] of the same molecule?
Answer: 55.8%

Question: What about the viability, T/C (second compound 0.03 µM, first compound 0.00316 µM) of the same molecule?
Answer: 105%

Question: What about the viability, T/C (second compound 0.03 µM, first compound 0.01 µM) of the same molecule?
Answer: 107%

Question: What about the viability, T/C [13] of the same molecule?
Answer: 94%

Question: What about the viability, T/C [14] of the same molecule?
Answer: 81.9%

Question: What about the viability, T/C [15] of the same molecule?
Answer: 83.3%

Question: And the viability, T/C [16]?
Answer: 62.2%

Question: What about the viability, T/C (second compound 0.0949 µM, first compound 0.00316 µM) of the same molecule?
Answer: 96%

Question: And the viability, T/C (second compound 0.0949 µM, first compound 0.01 µM)?
Answer: 87%

Question: And the viability, T/C [17]?
Answer: 92.2%

Question: And the viability, T/C [18]?
Answer: 78.8%

Question: And the viability, T/C [19]?
Answer: 81.6%

Question: What about the viability, T/C [20] of the same molecule?
Answer: 60.2%

Question: What about the viability, T/C (second compound 0.3 µM, first compound 0.00316 µM) of the same molecule?
Answer: 88.1%

Question: And the viability, T/C (second compound 0.3 µM, first compound 0.01 µM)?
Answer: 78.3%

Question: What about the viability, T/C [21] of the same molecule?
Answer: 86.5%

Question: What about the viability, T/C [22] of the same molecule?
Answer: 72.7%

Question: And the viability, T/C [23]?
Answer: 70.8%

Question: And the viability, T/C [24]?
Answer: 55.7%

Question: Which IC50 (second compound 0.000949 µM) does the source give for `C[C@@H](NC(=O)c1ncnc(N)c1Cl)c1ncc(C(=O)Nc2cc(C(F)(F)F)c(Cl)cn2)s1` + CCn1c(-c2cc(N3CCN(C)CC3)cnc2C(C)OC)c2c3cc(ccc31)-c1csc(n1)CC(NC(=O)C1CC1C)C(=O)N1CCCC(N1)C(=O)OCC(C)(C)C2 here?
Answer: > 10 µM

Question: What about the IC50 (second compound 0.003 µM) of the same molecule?
Answer: > 10 µM

Question: What about the IC50 (second compound 0.00949 µM) of the same molecule?
Answer: < 0.0316 µM

Question: What about the IC50 (second compound 0.03 µM) of the same molecule?
Answer: < 0.0316 µM

Question: What about the IC50 (second compound 0.0949 µM) of the same molecule?
Answer: < 0.0316 µM

Question: What about the IC50 (second compound 0.3 µM) of the same molecule?
Answer: < 0.0316 µM

Question: And the viability, T/C [1]?
Answer: 65.1%

Question: And the viability, T/C [2]?
Answer: 73.5%

Question: And the viability, T/C [3]?
Answer: 76.7%

Question: And the viability, T/C [4]?
Answer: 69.5%

Question: What about the viability, T/C (second compound 0.000949 µM, first compound 3.16 µM) of the same molecule?
Answer: 72.1%

Question: What about the viability, T/C (second compound 0.000949 µM, first compound 10 µM) of the same molecule?
Answer: 58%

Question: What about the viability, T/C [5] of the same molecule?
Answer: 61%

Question: And the viability, T/C [6]?
Answer: 57.5%

Question: What about the viability, T/C [7] of the same molecule?
Answer: 57.3%

Question: And the viability, T/C [8]?
Answer: 58.1%

Question: What about the viability, T/C (second compound 0.003 µM, first compound 3.16 µM) of the same molecule?
Answer: 56.8%

Question: What about the viability, T/C (second compound 0.003 µM, first compound 10 µM) of the same molecule?
Answer: 46.5%

Question: What about the viability, T/C [9] of the same molecule?
Answer: 48%

Question: And the viability, T/C [10]?
Answer: 48.2%

Question: What about the viability, T/C [11] of the same molecule?
Answer: 49.9%

Question: And the viability, T/C [12]?
Answer: 48%

Question: What about the viability, T/C (second compound 0.00949 µM, first compound 3.16 µM) of the same molecule?
Answer: 52.5%

Question: And the viability, T/C (second compound 0.00949 µM, first compound 10 µM)?
Answer: 40.8%

Question: What about the viability, T/C [13] of the same molecule?
Answer: 34.9%

Question: What about the viability, T/C [14] of the same molecule?
Answer: 39.1%

Question: What about the viability, T/C [15] of the same molecule?
Answer: 36.2%

Question: What about the viability, T/C [16] of the same molecule?
Answer: 37.4%

Question: And the viability, T/C (second compound 0.03 µM, first compound 3.16 µM)?
Answer: 40.3%

Question: And the viability, T/C (second compound 0.03 µM, first compound 10 µM)?
Answer: 31.4%

Question: And the viability, T/C [17]?
Answer: 31.2%

Question: And the viability, T/C [18]?
Answer: 32.2%

Question: And the viability, T/C [19]?
Answer: 31.7%

Question: What about the viability, T/C [20] of the same molecule?
Answer: 32.5%

Question: What about the viability, T/C (second compound 0.0949 µM, first compound 3.16 µM) of the same molecule?
Answer: 32.9%

Question: What about the viability, T/C (second compound 0.0949 µM, first compound 10 µM) of the same molecule?
Answer: 29.1%

Question: And the viability, T/C [21]?
Answer: 24.6%

Question: And the viability, T/C [22]?
Answer: 27.8%

Question: And the viability, T/C [23]?
Answer: 26.7%

Question: What about the viability, T/C [24] of the same molecule?
Answer: 29.8%

Question: And the viability, T/C (second compound 0.3 µM, first compound 3.16 µM)?
Answer: 31%

Question: What about the viability, T/C (second compound 0.3 µM, first compound 10 µM) of the same molecule?
Answer: 28.2%
